Test systems include SF-539 CNS; UACC-62 melanoma; SF-268 CNS; KM12 colon; CCRF-CEM leukemia; UACC-257 melanoma; LOX IMVI melanoma; HOP-92 NSCLC; M14 melanoma; MALME-3M melanoma; SK-MEL-28 melanoma; HOP-62 NSCLC; NCI/ADR-RES ovarian; NCI-H226 lung; PC-3 prostate; RXF 393 renal.
What all share (experiment): growth of human tumour cells (NCI), 48 h

Structures are written as SMILES.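 A five-concentration, 48-hour dose response in 96-well plates underlies each endpoint, interpolated linearly between surrounding concentrations. TGI: concentration producing complete growth inhibition.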 Some results are limits rather than exact numbers.

In the case of `O=C1NC2OCC(O)C(O)C2O1` (stereo not given), the TGI in the test with SF-539 CNS, in the test on UACC-62 melanoma, in the test with SF-268 CNS, in the test on KM12 colon, in the test on CCRF-CEM leukemia and in the test with UACC-257 melanoma was > 100 µM throughout. In addition, the TGI in the test with LOX IMVI melanoma, in the test on HOP-92 NSCLC, in the test on M14 melanoma, in the test on MALME-3M melanoma, in the test with SK-MEL-28 melanoma and in the test with HOP-62 NSCLC was > 100 µM in each case.
In the case of `CCOP(=O)(CN1CCNCCNCC1)OCC`, the TGI in the test with SF-539 CNS, in the test on UACC-62 melanoma, with NCI/ADR-RES ovarian, in the test on KM12 colon, with NCI-H226 lung and in the test on CCRF-CEM leukemia was > 100 µM throughout. The TGI in the test with UACC-257 melanoma, with LOX IMVI melanoma, in the test on PC-3 prostate, in the test on HOP-92 NSCLC, with M14 melanoma and in the test with SK-MEL-28 melanoma was > 100 µM each time. Besides, the TGI in the test on HOP-62 NSCLC is > 100 µM.
Consider `O=C(O)Cc1cccc2c1OC(c1ccccc1)C(Cl)(C(=O)c1ccccc1)C2=O` (stereo not given), for which the TGI with SF-539 CNS was 84.3 µM; in the test with NCI/ADR-RES ovarian, > 100 µM; with SF-268 CNS, 76.1 µM; with KM12 colon, 50.6 µM; with NCI-H226 lung it was 80.9 µM; with CCRF-CEM leukemia it was 18.2 µM. Further, the TGI came out at 32 µM in the test on UACC-257 melanoma; 29.2 µM in the test on LOX IMVI melanoma; 24.3 µM with PC-3 prostate; 34.9 µM in the test on MALME-3M melanoma; 29.1 µM with SK-MEL-28 melanoma; 43.6 µM with HOP-62 NSCLC.
For the compound `C/C(=C1/CCC/C(=C(/C)c2ccccc2)C1=O)c1ccccc1`, the TGI in the test with SF-539 CNS was > 100 µM; in the test on UACC-62 melanoma it was > 100 µM; in the test on SF-268 CNS, > 100 µM; in the test on KM12 colon it was > 100 µM; with NCI-H226 lung, 56.5 µM; with CCRF-CEM leukemia, 49.8 µM. The TGI in the test with UACC-257 melanoma was 74.9 µM; in the test on LOX IMVI melanoma it was > 100 µM; with HOP-92 NSCLC, > 100 µM; with M14 melanoma, > 100 µM; in the test on RXF 393 renal, 47.6 µM; in the test with MALME-3M melanoma it was 46.7 µM. Besides, the TGI with SK-MEL-28 melanoma is > 100 µM.
With `Cc1ccc(S(=O)(=O)OC(c2ccc(Cl)cc2Cl)C2OC(=O)c3ccccc32)cc1` (stereo not given), the TGI with SF-539 CNS, with UACC-62 melanoma, with SF-268 CNS, in the test on KM12 colon, in the test with NCI-H226 lung and in the test on CCRF-CEM leukemia was > 100 µM each time. The TGI in the test with LOX IMVI melanoma, with M14 melanoma, in the test on RXF 393 renal, with MALME-3M melanoma, with SK-MEL-28 melanoma and in the test on HOP-62 NSCLC was > 100 µM throughout.
As for `CCOC(=O)C(Cc1cn(S(=O)(=O)c2ccccc2)c2ccccc12)(NC(C)=O)C(=O)OCC`, the TGI with SF-539 CNS was > 100 µM; in the test on UACC-62 melanoma it was > 100 µM; in the test with SF-268 CNS, > 100 µM; in the test on KM12 colon it was > 100 µM; in the test on NCI-H226 lung, 93.6 µM; in the test with CCRF-CEM leukemia, 72 µM. Further, the TGI is 88.2 µM with UACC-257 melanoma; 67.1 µM with HOP-92 NSCLC; > 100 µM with M14 melanoma; > 100 µM with MALME-3M melanoma; > 100 µM in the test on SK-MEL-28 melanoma; > 100 µM with HOP-62 NSCLC.
On to `O=C1O/C(=C(/Cl)c2cccc3ccccc23)c2ccccc21`, for which the TGI in the test on SF-539 CNS, in the test on UACC-62 melanoma, with SF-268 CNS, in the test with KM12 colon, with UACC-257 melanoma and in the test with PC-3 prostate was > 100 µM throughout. Also, the TGI in the test on HOP-92 NSCLC, in the test with M14 melanoma, in the test on RXF 393 renal, with MALME-3M melanoma, in the test with SK-MEL-28 melanoma and with HOP-62 NSCLC was > 100 µM throughout.
With `CC(=O)OC1(C)C=CC(=O)C=C1`, the TGI in the test with SF-539 CNS is > 100 µM; with UACC-62 melanoma, 35.7 µM; in the test with NCI/ADR-RES ovarian, 26.3 µM; with SF-268 CNS, > 100 µM; with KM12 colon it was > 100 µM; with NCI-H226 lung, 73 µM. Moreover, the TGI with CCRF-CEM leukemia was > 100 µM; in the test with UACC-257 melanoma it was 34.4 µM; in the test on LOX IMVI melanoma, > 100 µM; with PC-3 prostate, > 100 µM; in the test with HOP-92 NSCLC, > 100 µM; with M14 melanoma, > 100 µM. Besides, the TGI with SK-MEL-28 melanoma stood at 69.6 µM; with HOP-62 NSCLC, 75.7 µM.
In the case of `COc1ccc(CNc2nc3cc(C(F)(F)F)ccc3nc2C)cc1OC`, the TGI was > 100 µM in the test on SF-539 CNS; > 100 µM in the test with UACC-62 melanoma; > 100 µM in the test with SF-268 CNS; 83 µM in the test with KM12 colon; > 100 µM with CCRF-CEM leukemia; 42.6 µM in the test with UACC-257 melanoma. Besides, the TGI in the test on LOX IMVI melanoma was 68.7 µM; with M14 melanoma, 44.6 µM; with MALME-3M melanoma, 44.1 µM; in the test with SK-MEL-28 melanoma, > 100 µM; in the test on HOP-62 NSCLC it was 69.9 µM.
For `COc1ccc(-c2cc(=O)c3ccccc3[nH]2)c(OC)c1`, the TGI in the test with SF-539 CNS, with UACC-62 melanoma, in the test with SF-268 CNS, in the test on KM12 colon, with CCRF-CEM leukemia and with UACC-257 melanoma was > 100 µM in each case. In addition, the TGI with LOX IMVI melanoma, with M14 melanoma, in the test on RXF 393 renal, with MALME-3M melanoma, with SK-MEL-28 melanoma and in the test with HOP-62 NSCLC was > 100 µM each time.
As to `CC(C)N1CN(C(C(=O)N[C@@H]2C(=O)N3C2SC(C)(C)C3C(=O)O)c2ccccc2)CSC1=S` (stereo not given in full), the TGI with SF-539 CNS, in the test with UACC-62 melanoma, in the test on SF-268 CNS, in the test with KM12 colon, in the test with CCRF-CEM leukemia and in the test with UACC-257 melanoma was > 100 µM throughout. Besides, the TGI in the test on LOX IMVI melanoma, in the test on HOP-92 NSCLC, with M14 melanoma, in the test with MALME-3M melanoma, in the test with SK-MEL-28 melanoma and with HOP-62 NSCLC was > 100 µM in each case.

These data come from PubChem BioAssay (NCI).
